Reference: ChEMBL document CHEMBL1671859, “bla(IMP-4) in different genetic contexts in Enterobacteriaceae isolates from Australia” (2008)
Values after ≈ are worked out from the molar mass of the structure shown.

Tests used:
Format in all cases: functional
Serratia marcescens [1] = assay: Antibacterial activity against Serratia marcescens isolate Sm220 harboring IncA/C plasmid and blaIMP-4-qacG2-aacA4-catB3 array by Etest method
Serratia marcescens [2] = assay: Antibacterial activity against Serratia marcescens isolate Sm211 harboring IncA/C plasmid and blaIMP-4-qacG2-aacA4-catB3 array by Etest method
Klebsiella pneumoniae [3] = assay: Antibacterial activity against Klebsiella pneumoniae isolate Kp38009 harboring IncL/M plasmid and blaIMP-4-qacG2-aacA4-catB3 array by Etest method
Klebsiella pneumoniae [4] = assay: Antibacterial activity against Klebsiella pneumoniae isolate Kp204 harboring IncA/C plasmid and blaIMP-4-qacG2-aacA4-catB3 array by Etest method
Morganella morganii [5] = assay: Antibacterial activity against Morganella morganii isolate Mm1229 harboring IncL/M plasmid and blaIMP-4-qacG2-aacA4-catB3 array by Etest method
Citrobacter freundii = assay: Antibacterial activity against Citrobacter freundii isolate Cf1614 harboring IncL/M plasmid and blaIMP-4-qacG2-aacA4-catB3 array by Etest method
Escherichia coli [6] = assay: Antibacterial activity against Escherichia coli isolate Ec211 harboring IncA/C plasmid and blaIMP-4-qacG2-aacA4-catB3 array by Etest method
Acinetobacter baumannii = assay: Antibacterial activity against Acinetobacter baumannii isolate AbN450 harboring […]-qacG2-aacA4-catB3 array by Etest method
Serratia marcescens [7] = assay: Antibacterial activity against Serratia marcescens isolate Sm203 harboring IncA/C plasmid and blaIMP-4-qacG2-aacA4-catB3 array by Etest method
Klebsiella oxytoca [8] = assay: Antibacterial activity against Klebsiella oxytoca Ko238 transconjugant harboring IncA/C plasmid and blaIMP-4-qacG2-aacA4-catB3 array by Etest method
Klebsiella pneumoniae [9] = assay: Antibacterial activity against Klebsiella pneumoniae isolate Kp266 harboring IncA/C plasmid and blaIMP-4-qacG2-aacA4-catB3 array by Etest method
Enterobacter cloacae [10] = assay: Antibacterial activity against Enterobacter cloacae isolate El216 harboring IncA/C plasmid and blaIMP-4-qacG2-aacA4-catB3 array by Etest method
Citrobacter amalonaticus = assay: Antibacterial activity against Citrobacter amalonaticus isolate Ca1614 harboring IncL/M plasmid and blaIMP-4-qacG2-aacA4-catB3 array by Etest method
Morganella morganii [11] = assay: Antibacterial activity against Morganella morganii isolate Mm38009 harboring IncL/M plasmid and blaIMP-4-qacG2-aacA4-catB3 array by Etest method
Serratia marcescens [12] = assay: Antibacterial activity against Serratia marcescens isolate Sm2723 harboring IncL/M plasmid and blaIMP-4-qacG2-aacA4-catB3 array by Etest method
Acinetobacter = assay: Antibacterial activity against Acinetobacter isolate A74510 harboring blaIMP-4-qacG2-aacA4-catB3 array by Etest method
Enterobacter cloacae [13] = assay: Antibacterial activity against Enterobacter cloacae El3799 transconjugant harboring IncL/M plasmid and blaIMP-4-qacG2-aacA4-catB3 array by Etest method
Klebsiella oxytoca [14] = assay: Antibacterial activity against Klebsiella oxytoca isolate Ko0426 harboring IncL/M plasmid and blaIMP-4-qacG2-aacA4-catB3 array by Etest method
Citrobacter koseri [15] = assay: Antibacterial activity against Citrobacter koseri isolate Ck211 harboring IncA/C plasmid and blaIMP-4-qacG2-aacA4-catB3 array by Etest method
Citrobacter koseri [16] = assay: Antibacterial activity against Citrobacter koseri Ck211 transconjugant harboring IncA/C plasmid and blaIMP-4-qacG2-aacA4-catB3 array by Etest method
Klebsiella pneumoniae [17] = assay: Antibacterial activity against Klebsiella pneumoniae Kp3799 transconjugant harboring IncL/M plasmid and blaIMP-4-qacG2-aacA4-catB3 array by Etest method
Klebsiella pneumoniae [18] = assay: Antibacterial activity against Klebsiella pneumoniae isolate Kp149 harboring IncA/C plasmid and blaIMP-4-qacG2-aacA4-catB3 array by Etest method
Klebsiella oxytoca [19] = assay: Antibacterial activity against Klebsiella oxytoca Ko1156 transconjugant harboring IncL/M plasmid and blaIMP-4-qacG2-aacA4-catB3 array by Etest method
Serratia marcescens [20] = assay: Antibacterial activity against Serratia marcescens Sm265 transconjugant harboring IncA/C plasmid and blaIMP-4-qacG2-aacA4-catB3 array by Etest method
Klebsiella pneumoniae [21] = assay: Antibacterial activity against Klebsiella pneumoniae Kp204 transconjugant harboring IncA/C plasmid and blaIMP-4-qacG2-aacA4-catB3 array by Etest method
Escherichia coli [22] = assay: Antibacterial activity against Escherichia coli Ec158 transconjugant harboring IncA/C plasmid and blaIMP-4-qacG2-aacA4-catB3 array by Etest method
Klebsiella pneumoniae [23] = assay: Antibacterial activity against Klebsiella pneumoniae isolate Kp7564 harboring IncL/M plasmid and blaIMP-4-qacG2-aacA4-catB3 array by Etest method
Klebsiella pneumoniae [24] = assay: Antibacterial activity against Klebsiella pneumoniae isolate Kp2730 harboring IncL/M plasmid and blaIMP-4-qacG2-aacA4-catB3 and dfrA12-orfF-aadA2 arrays by Etest method
Citrobacter youngae = assay: Antibacterial activity against Citrobacter youngae CyB38 transconjugant harboring blaIMP-4-qacG2-aacA4-catB3 array by Etest method
Escherichia coli [25] = assay: Antibacterial activity against Escherichia coli Ec221 transconjugant harboring IncA/C plasmid and blaIMP-4-qacG2-aacA4-catB3 array by Etest method
Klebsiella pneumoniae [26] = assay: Antibacterial activity against Klebsiella pneumoniae isolate Kp3799 harboring IncL/M plasmid and blaIMP-4-qacG2-aacA4-catB3 array by Etest method
Escherichia coli [27] = assay: Antibacterial activity against Escherichia coli isolate Ec9381 harboring IncL/M plasmid and blaIMP-4-qacG2-aacA4-catB3 array by Etest method
Enterobacter cloacae [28] = assay: Antibacterial activity against Enterobacter cloacae isolate El3799 harboring IncL/M plasmid and blaIMP-4-qacG2-aacA4-catB3 array by Etest method
Klebsiella pneumoniae [29] = assay: Antibacterial activity against Klebsiella pneumoniae isolate Kp4614
Klebsiella pneumoniae [30] = assay: Antibacterial activity against Klebsiella pneumoniae isolate Kp1239 harboring IncL/M plasmid and blaIMP-4-qacG2-aacA4-catB3 array by Etest method
Klebsiella oxytoca [31] = assay: Antibacterial activity against Klebsiella oxytoca isolate Ko238 harboring IncA/C plasmid and blaIMP-4-qacG2-aacA4-catB3 array by Etest method
Escherichia coli [32] = assay: Antibacterial activity against Escherichia coli isolate Ec221 harboring IncA/C plasmid and blaIMP-4-qacG2-aacA4-catB3 array by Etest method
Enterobacter cloacae [33] = assay: Antibacterial activity against Enterobacter cloacae isolate El3518 harboring IncL/M plasmid and blaIMP-4-qacG2-aacA4-catB3 array by Etest method
Klebsiella pneumoniae [34] = assay: Antibacterial activity against Klebsiella pneumoniae Kp2730 transconjugant harboring IncL/M plasmid and blaIMP-4-qacG2-aacA4-catB3 and dfrA12-orfF-aadA2 arrays by Etest method
Escherichia coli [35] = assay: Antibacterial activity against Escherichia coli isolate Ec158 harboring IncA/C plasmid and blaIMP-4-qacG2-aacA4-catB3 array by Etest method
Klebsiella oxytoca [36] = assay: Antibacterial activity against Klebsiella oxytoca Ko0426 transconjugant harboring IncL/M plasmid and blaIMP-4-qacG2-aacA4-catB3 array by Etest method
Klebsiella pneumoniae [37] = assay: Antibacterial activity against Klebsiella pneumoniae Kp149 transconjugant harboring IncA/C plasmid and blaIMP-4-qacG2-aacA4-catB3 array by Etest method

## C[C@@H](O)[C@H]1C(=O)N2C(C(=O)O)=C(SCCNC=N)C[C@H]12 [IMIPENEM ANHYDROUS]
Serratia marcescens [1]
  MIC: > 8 µg/mL
Serratia marcescens [2]
  MIC: 4 µg/mL (≈ 13.4 µM)
Klebsiella pneumoniae [3]
  MIC: 0.5 µg/mL (≈ 1.67 µM)
Klebsiella pneumoniae [4]
  MIC: 8 µg/mL (≈ 26.7 µM)
Morganella morganii [5]
  MIC: 4 µg/mL (≈ 13.4 µM)
Citrobacter freundii
  MIC: 4 µg/mL (≈ 13.4 µM)
Escherichia coli [6]
  MIC: 4 µg/mL (≈ 13.4 µM)
Acinetobacter baumannii
  MIC: > 8 µg/mL
Serratia marcescens [7]
  MIC: 4 µg/mL (≈ 13.4 µM)
Klebsiella oxytoca [8]
  MIC: 2 µg/mL (≈ 6.68 µM)
Klebsiella pneumoniae [9]
  MIC: 8 µg/mL (≈ 26.7 µM)
Enterobacter cloacae [10]
  MIC: > 8 µg/mL
Citrobacter amalonaticus
  MIC: 4 µg/mL (≈ 13.4 µM)
Morganella morganii [11]
  MIC: 3 µg/mL (≈ 10 µM)
Serratia marcescens [12]
  MIC: 1.5 µg/mL (≈ 5.01 µM)
Acinetobacter
  MIC: > 8 µg/mL
Enterobacter cloacae [13]
  MIC: ≤ 1 µg/mL
Klebsiella oxytoca [14]
  MIC: 4 µg/mL (≈ 13.4 µM)
Citrobacter koseri [15]
  MIC: ≤ 1 µg/mL
Citrobacter koseri [16]
  MIC: ≤ 1 µg/mL
Klebsiella pneumoniae [17]
  MIC: 2 µg/mL (≈ 6.68 µM)
Klebsiella pneumoniae [18]
  MIC: 8 µg/mL (≈ 26.7 µM)
Klebsiella oxytoca [19]
  MIC: ≤ 1 µg/mL
Serratia marcescens [20]
  MIC: 2 µg/mL (≈ 6.68 µM)
Klebsiella pneumoniae [21]
  MIC: 4 µg/mL (≈ 13.4 µM)
Escherichia coli [22]
  MIC: 2 µg/mL (≈ 6.68 µM)
Klebsiella pneumoniae [23]
  MIC: 7 µg/mL (≈ 23.4 µM)
Klebsiella pneumoniae [24]
  MIC: 8 µg/mL (≈ 26.7 µM)
Citrobacter youngae
  MIC: 4 µg/mL (≈ 13.4 µM)
Escherichia coli [25]
  MIC: 4 µg/mL (≈ 13.4 µM)
Klebsiella pneumoniae [26]
  MIC: 4 µg/mL (≈ 13.4 µM)
Escherichia coli [27]
  MIC: 1.5 µg/mL (≈ 5.01 µM)
Enterobacter cloacae [28]
  MIC: 1 µg/mL (≈ 3.34 µM)
Klebsiella pneumoniae [29]
  MIC: ≤ 1 µg/mL
Klebsiella pneumoniae [30]
  MIC: > 32 µg/mL
Klebsiella oxytoca [31]
  MIC: 8 µg/mL (≈ 26.7 µM)
Escherichia coli [32]
  MIC: 8 µg/mL (≈ 26.7 µM)
Enterobacter cloacae [33]
  MIC: 3 µg/mL (≈ 10 µM)
Klebsiella pneumoniae [34]
  MIC: 2 µg/mL (≈ 6.68 µM)
Escherichia coli [35]
  MIC: ≤ 1 µg/mL
Klebsiella oxytoca [36]
  MIC: 4 µg/mL (≈ 13.4 µM)
Klebsiella pneumoniae [37]
  MIC: 4 µg/mL (≈ 13.4 µM)

## CO/N=C(\C(=O)N[C@@H]1C(=O)N2C(C(=O)O)=C(COC(C)=O)CS[C@H]12)c1csc(N)n1 [CEFOTAXIME]
Serratia marcescens [1]
  MIC: > 32 µg/mL
Serratia marcescens [2]
  MIC: > 32 µg/mL
Klebsiella pneumoniae [3]
  MIC: > 32 µg/mL
Klebsiella pneumoniae [4]
  MIC: > 32 µg/mL
Morganella morganii [5]
  MIC: > 32 µg/mL
Citrobacter freundii
  MIC: > 32 µg/mL
Escherichia coli [6]
  MIC: > 32 µg/mL
Acinetobacter baumannii
  MIC: > 32 µg/mL
Serratia marcescens [7]
  MIC: > 32 µg/mL
Klebsiella oxytoca [8]
  MIC: 32 µg/mL (≈ 70.3 µM)
Klebsiella pneumoniae [9]
  MIC: > 32 µg/mL
Enterobacter cloacae [10]
  MIC: > 32 µg/mL
Citrobacter amalonaticus
  MIC: > 32 µg/mL
Morganella morganii [11]
  MIC: 32 µg/mL (≈ 70.3 µM)
Serratia marcescens [12]
  MIC: > 32 µg/mL
Acinetobacter
  MIC: > 32 µg/mL
Enterobacter cloacae [13]
  MIC: 32 µg/mL (≈ 70.3 µM)
Klebsiella oxytoca [14]
  MIC: 32 µg/mL (≈ 70.3 µM)
Citrobacter koseri [15]
  MIC: > 32 µg/mL
Citrobacter koseri [16]
  MIC: > 2 µg/mL
Klebsiella pneumoniae [17]
  MIC: 32 µg/mL (≈ 70.3 µM)
Klebsiella pneumoniae [18]
  MIC: > 32 µg/mL
Klebsiella oxytoca [19]
  MIC: 16 µg/mL (≈ 35.1 µM)
Serratia marcescens [20]
  MIC: > 32 µg/mL
Klebsiella pneumoniae [21]
  MIC: > 32 µg/mL
Escherichia coli [22]
  MIC: > 32 µg/mL
Klebsiella pneumoniae [23]
  MIC: 32 µg/mL (≈ 70.3 µM)
Klebsiella pneumoniae [24]
  MIC: > 32 µg/mL
Citrobacter youngae
  MIC: > 32 µg/mL
Escherichia coli [25]
  MIC: 32 µg/mL (≈ 70.3 µM)
Klebsiella pneumoniae [26]
  MIC: > 32 µg/mL
Escherichia coli [27]
  MIC: > 32 µg/mL
Enterobacter cloacae [28]
  MIC: > 32 µg/mL
Klebsiella pneumoniae [29]
  MIC: > 32 µg/mL
Klebsiella pneumoniae [30]
  MIC: > 32 µg/mL
Klebsiella oxytoca [31]
  MIC: > 32 µg/mL
Escherichia coli [32]
  MIC: > 32 µg/mL
Enterobacter cloacae [33]
  MIC: > 32 µg/mL
Klebsiella pneumoniae [34]
  MIC: 32 µg/mL (≈ 70.3 µM)
Escherichia coli [35]
  MIC: > 32 µg/mL
Klebsiella oxytoca [36]
  MIC: 32 µg/mL (≈ 70.3 µM)
Klebsiella pneumoniae [37]
  MIC: > 32 µg/mL
